No end group written: not given here.

For data set [1], the system named is LONG-COVID-19 symptoms. Kind of data set: Treatment of patients suffering from post-COVID-19 syndrome (long COVID) with daily s.c. injection of HEP-1, single case reports. Format: in vivo, human.
A short description of data set [2]: Toxicity at high dosages (general statement). Format: in vivo. To be noted: high dosages of 50 mg per kg of body weight per day or higher. On the procedure: The dosage of Ezrin peptide 1 and its analogues of the formula (I) is not particularly critical, as Ezrin peptide 1 and its analogues are not toxic even at high dosages of 50 mg per kg of body weight per day or higher. Preferably, Ezrin peptide 1 and its analogues are administered to an adult human in an amount of at least 0.05 milligrams per day (mg/d), in particular at least 0.1 mg/d, e.g. in an amount of 0.05 to 5 mg/d, in particular 0.1 to 2 mg/d or 0.1 to 1 mg/d or 0.1 to 0.5 mg/d. Typically, for parenteral administrations lower dosages will be required than for oral or rectal administration. To achieve a rapid relief of the symptoms of post-COVID-19 syndrome, it may also be reasonable to administer at least 0.5 mg per day or at least 1 mg per day, e.g. in the range of 0.5 to 5 mg/d, but in other cases a lower dosage may be suitable. It is also possible to start with a higher dosage, e. g. in the range of 0.5 to 5 mg/d, more preferably 0.5 to 3 mg/d and then continue with a lower dosage of e.g. 0.05 to 0.5 mg/d or 0.1 to 0.5 mg/day. A single administration of Ezrin peptide 1 and/or one of its analogues of the formula (I) may be sufficient to ameliorate or even cure the symptoms of a post-COVID-19 syndrome. […] Depending on the severity of the symptoms, this time period is typically in the range of 5 days to 10 weeks and in particular in the range of 10 days to 8 weeks.

The test system of data set [3] is cell cultures. To be noted: R. Ataullakhanov et al. 2005; cited from earlier work.
Data set [4] deals with inflammatory cytokine production. The conditions noted are these: cell cultures; cited from earlier work.

For the sequence “TEKKRRETVEREKE [HEP-1, NH2_Thr-Glu-Lys-Lys-Arg-Arg-Glu-Thr-Val-Glu-Arg-Glu-Lys-Glu_COOH]”, the “final clinical outcome of long COVID” value is reported as “complete recovery” in data set [1] (Example 1, person, HEP-1 0.2 mg s.c. per day 22 Jan. 2021 until Mar. 10 2021, assessed 10 Mar. 2021); “complete recovery” in data set [1] (Example 2, person, HEP-1 0.2 mg s.c. per day 26 Feb. 2021 until Mar. 17 2021, assessed 17 Mar. 2021); “complete recovery” in data set [1] (Example 3, person, HEP-1 0.2 mg s.c. per day 29 Mar. 2021 until Apr. 24 2021, assessed 23 Apr. 2021); “cured” in data set [1] (Example 6, person, asthma, HEP-1 2 mg s.c. per day for 10 days, then 0.2 mg s.c. per day for 30 days, after 3 weeks of treatment). For the same sequence, the “mental ability (short memory) and physical strength (walking distance), interim outcome” value is on record as “remarkable improvement” in data set [1] (Example 1, person, HEP-1 0.2 mg s.c. per day from 22 Jan. 2021, assessed 29 Jan. 2021); “remarkable improvement” in data set [1] (Example 2, person, ankylosis spondylitis, HEP-1 0.2 mg s.c. per day from 26 Feb. 2021, assessed 4 Mar. 2021); “remarkable improvement” in data set [1] (Example 3, person, HEP-1 0.2 mg s.c. per day from 29 Mar. 2021, assessed 15 Apr. 2021). The “final clinical outcome of long COVID (persisting fatigue syndrome)” value in data set [1] (Example 4, person, HEP-1 0.2 mg s.c. per day for 10 days) is “free of any symptoms”. Also, in data set [1] (Example 5, person, HEP-1 0.2 mg s.c. per day from 26 Feb. 2021, assessed 12 Mar. 2021), the “final clinical outcome of long COVID (fatigue syndrome and cognitive disorder)” value is given as “free of any symptoms”. The “final clinical outcome of long COVID (fatigue, cognitive disorder, narcolepsy)” value in data set [1] (Example 7, person, HEP-1 0.2 mg s.c. per day, after 11 days of treatment) is on record as “symptoms completely disappeared”. Moreover, the toxicity result in data set [2] is “not toxic”. Besides, in data set [3], the “anti-viral effect in cell cultures” value is “shows an anti-viral effect”. Also, the “production of pro- and inflammatory cytokins (e.g. IL-1, IL-6, TNF-alpha)” value in data set [4] is “reduces”. Besides, the “synthesis of alpha- and beta interferons” value in data set [4] was “induces”.

(Values after US20240180999A1, “EZRIN PEPTIDE 1 FOR USE IN A METHOD OF TREATING POST COVID-19” (priority 2021, published 2024).)
